Test results: ChEMBL document CHEMBL1671858, “Coprevalence of plasmid-mediated quinolone resistance determinants QepA, Qnr, and AAC(6')-Ib-cr among 16S rRNA methylase RmtB-producing Escherichia coli isolates from pigs” (2008)
Converted amounts (≈) assume the structure as drawn.

Columns and labels:
Type in all cases: functional
Escherichia coli [1] = assay: Antimicrobial activity against Escherichia coli isolate CQ12 transconjugant harboring 16S rRNA methylase RmtB and qepA, qnrS2, aac(6')-Ib-cr gene by agar dilution method relative to recipient strain
Escherichia coli [2] = assay: Antimicrobial activity against Escherichia coli isolate GZ7 PFGE type N harboring qepA gene by agar dilution method
Escherichia coli [3] = assay: Antimicrobial activity against Escherichia coli isolate GZ14 PFGE type F harboring qepA gene by agar dilution method
Escherichia coli [4] = assay: Antimicrobial activity against Escherichia coli isolate CQ7 transconjugant harboring 16S rRNA methylase RmtB and qepA, qnrS2, aac(6')-Ib-cr gene by agar dilution method relative to recipient strain
Escherichia coli [5] = assay: Antimicrobial activity against Escherichia coli isolate GZ2 transconjugant harboring 16S rRNA methylase RmtB and qnrS1 by agar dilution method relative to recipient strain
Escherichia coli [6] = assay: Antimicrobial activity against Escherichia coli isolate GZ14 transconjugant harboring 16S rRNA methylase RmtB and qepA by agar dilution method relative to recipient strain
Escherichia coli [7] = assay: Antimicrobial activity against Escherichia coli isolate CQ12 PFGE type Q harboring qepA gene by agar dilution method
Escherichia coli [8] = assay: Antimicrobial activity against Escherichia coli isolate CQ19 PFGE type S harboring qepA gene by agar dilution method
Escherichia coli [9] = assay: Antimicrobial activity against Escherichia coli isolate GZ2 PFGE type O harboring qepA gene by agar dilution method
Escherichia coli [10] = assay: Antimicrobial activity against Escherichia coli isolate CQ18 transconjugant harboring 16S rRNA methylase RmtB and qepA by agar dilution method relative to recipient strain
Escherichia coli [11] = assay: Antimicrobial activity against Escherichia coli isolate GZ3 PFGE type A1 harboring qepA gene by agar dilution method
Escherichia coli [12] = assay: Antimicrobial activity against Escherichia coli isolate CQ26 transconjugant harboring 16S rRNA methylase RmtB and qepA by agar dilution method relative to recipient strain
Escherichia coli [13] = assay: Antimicrobial activity against Escherichia coli isolate GZ16 transconjugant harboring 16S rRNA methylase RmtB and qepA by agar dilution method relative to recipient strain
Escherichia coli [14] = assay: Antimicrobial activity against Escherichia coli isolate CQ15 PFGE type I1 harboring qepA gene by agar dilution method
Escherichia coli [15] = assay: Antimicrobial activity against Escherichia coli isolate CQ22 PFGE type P harboring qepA gene by agar dilution method
Escherichia coli [16] = assay: Antimicrobial activity against Escherichia coli isolate GZ4 PFGE type A2 harboring qepA gene by agar dilution method
Escherichia coli [17] = assay: Antimicrobial activity against Escherichia coli isolate CQ4 transconjugant harboring 16S rRNA methylase RmtB and qepA by agar dilution method relative to recipient strain
Escherichia coli [18] = assay: Antimicrobial activity against Escherichia coli isolate GZ12 PFGE type F harboring qepA gene by agar dilution method
Escherichia coli [19] = assay: Antimicrobial activity against Escherichia coli isolate GZ5 PFGE type B harboring qepA gene by agar dilution method
Escherichia coli [20] = assay: Antimicrobial activity against Escherichia coli isolate CQ6 transconjugant harboring 16S rRNA methylase RmtB and qepA, qnrS2, aac(6')-Ib-cr gene by agar dilution method relative to recipient strain
Escherichia coli [21] = assay: Antimicrobial activity against Escherichia coli isolate CQ20 transconjugant harboring 16S rRNA methylase RmtB and qepA by agar dilution method relative to recipient strain
Escherichia coli [22] = assay: Antimicrobial activity against Escherichia coli isolate CQ16 transconjugant harboring 16S rRNA methylase RmtB and qepA, qnrS2, aac(6')-Ib-cr gene by agar dilution method relative to recipient strain
Escherichia coli [23] = assay: Antimicrobial activity against Escherichia coli isolate CQ2 PFGE type I2 harboring qepA gene by agar dilution method
Escherichia coli [24] = assay: Antimicrobial activity against Escherichia coli isolate GZ8 PFGE type C harboring qepA gene by agar dilution method
Escherichia coli [25] = assay: Antimicrobial activity against Escherichia coli isolate GZ7 transconjugant harboring 16S rRNA methylase RmtB and qepA and qnrS1 by agar dilution method relative to recipient strain
Escherichia coli [26] = assay: Antimicrobial activity against Escherichia coli isolate GZ15 PFGE type G harboring qepA gene by agar dilution method
Escherichia coli [27] = assay: Antimicrobial activity against Escherichia coli isolate GZ1 transconjugant harboring 16S rRNA methylase RmtB and qnrS1 by agar dilution method relative to recipient strain
Escherichia coli [28] = assay: Antimicrobial activity against Escherichia coli isolate CQ4 PFGE type J1 harboring qepA gene by agar dilution method
Escherichia coli [29] = assay: Antimicrobial activity against Escherichia coli isolate GZ1 PFGE type O harboring qepA gene by agar dilution method
Escherichia coli [30] = assay: Antimicrobial activity against Escherichia coli isolate GZ6 PFGE type B harboring qepA gene by agar dilution method
Escherichia coli [31] = assay: Antimicrobial activity against Escherichia coli isolate CQ15 transconjugant harboring 16S rRNA methylase RmtB and qepA by agar dilution method relative to recipient strain
Escherichia coli [32] = assay: Antimicrobial activity against Escherichia coli isolate GZ5 transconjugant harboring 16S rRNA methylase RmtB and qepA by agar dilution method relative to recipient strain
Escherichia coli [33] = assay: Antimicrobial activity against Escherichia coli isolate CQ7 PFGE type Q harboring qepA gene by agar dilution method
Escherichia coli [34] = assay: Antimicrobial activity against Escherichia coli isolate CQ5 PFGE type I2 harboring qepA gene by agar dilution method
Escherichia coli [35] = assay: Antimicrobial activity against Escherichia coli isolate GZ11 transconjugant harboring 16S rRNA methylase RmtB and qepA by agar dilution method relative to recipient strain
Escherichia coli [36] = assay: Antimicrobial activity against Escherichia coli isolate CQ19 transconjugant harboring 16S rRNA methylase RmtB and qepA, aac(6')-Ib-cr gene by agar dilution method relative to recipient strain
Escherichia coli [37] = assay: Antimicrobial activity against Escherichia coli isolate GZ12 transconjugant harboring 16S rRNA methylase RmtB and qepA by agar dilution method relative to recipient strain
Escherichia coli [38] = assay: Antimicrobial activity against Escherichia coli isolate CQ14 PFGE type M harboring qepA gene by agar dilution method
Escherichia coli [39] = assay: Antimicrobial activity against Escherichia coli isolate CQ10 transconjugant harboring 16S rRNA methylase RmtB and qepA by agar dilution method relative to recipient strain
Escherichia coli [40] = assay: Antimicrobial activity against Escherichia coli isolate CQ13 PFGE type K harboring qepA gene by agar dilution method
Escherichia coli [41] = assay: Antimicrobial activity against Escherichia coli isolate CQ16 PFGE type Q harboring qepA gene by agar dilution method
Escherichia coli [42] = assay: Antimicrobial activity against Escherichia coli isolate CQ22 transconjugant harboring 16S rRNA methylase RmtB and qnrS1 by agar dilution method relative to recipient strain
Escherichia coli [43] = assay: Antimicrobial activity against Escherichia coli isolate GZ8 transconjugant harboring 16S rRNA methylase RmtB and qepA by agar dilution method relative to recipient strain
Escherichia coli [44] = assay: Antimicrobial activity against Escherichia coli isolate GZ11 PFGE type E harboring qepA gene by agar dilution method
Escherichia coli [45] = assay: Antimicrobial activity against Escherichia coli isolate GZ10 transconjugant harboring 16S rRNA methylase RmtB and qepA, aac(6')-Ib-cr gene by agar dilution method relative to recipient strain
Escherichia coli [46] = assay: Antimicrobial activity against Escherichia coli isolate GZ15 transconjugant harboring 16S rRNA methylase RmtB and qepA by agar dilution method relative to recipient strain

## CCN1CCN(c2cc3c(cc2F)c(=O)c(C(=O)O)cn3C2CC2)CC1 [ENROFLOXACIN]
Escherichia coli [1]
  fold change (FC): 4
Escherichia coli [2]
  MIC: 32 µg/mL (≈ 89 µM)
Escherichia coli [3]
  MIC: 16 µg/mL (≈ 44.5 µM)
Escherichia coli [4]
  fold change (FC): 2
Escherichia coli [5]
  fold change (FC): 2
Escherichia coli [6]
  fold change (FC): 8
Escherichia coli [7]
  MIC: 2 µg/mL (≈ 5.56 µM)
Escherichia coli [8]
  MIC: 2 µg/mL (≈ 5.56 µM)
Escherichia coli [9]
  MIC: 2 µg/mL (≈ 5.56 µM)
Escherichia coli [10]
  fold change (FC): 1
Escherichia coli [11]
  MIC: 64 µg/mL (≈ 178 µM)
Escherichia coli [12]
  fold change (FC): 2
Escherichia coli [13]
  fold change (FC): 2
Escherichia coli [14]
  MIC: 2 µg/mL (≈ 5.56 µM)
Escherichia coli [15]
  MIC: 4 µg/mL (≈ 11.1 µM)
Escherichia coli [16]
  MIC: 32 µg/mL (≈ 89 µM)
Escherichia coli [17]
  fold change (FC): 1
Escherichia coli [18]
  MIC: 16 µg/mL (≈ 44.5 µM)
Escherichia coli [19]
  MIC: 16 µg/mL (≈ 44.5 µM)
Escherichia coli [20]
  fold change (FC): 2
Escherichia coli [21]
  fold change (FC): 4
Escherichia coli [22]
  fold change (FC): 2
Escherichia coli [23]
  MIC: 2 µg/mL (≈ 5.56 µM)
Escherichia coli [24]
  MIC: 64 µg/mL (≈ 178 µM)
Escherichia coli [25]
  fold change (FC): 1
Escherichia coli [26]
  MIC: 8 µg/mL (≈ 22.3 µM)
Escherichia coli [27]
  fold change (FC): 32
Escherichia coli [28]
  MIC: 0.03 µg/mL (≈ 0.0835 µM)
Escherichia coli [29]
  MIC: 4 µg/mL (≈ 11.1 µM)
Escherichia coli [30]
  MIC: 16 µg/mL (≈ 44.5 µM)
Escherichia coli [31]
  fold change (FC): 16
Escherichia coli [32]
  fold change (FC): 8
Escherichia coli [33]
  MIC: 2 µg/mL (≈ 5.56 µM)
Escherichia coli [34]
  MIC: 4 µg/mL (≈ 11.1 µM)
Escherichia coli [35]
  fold change (FC): 4
Escherichia coli [36]
  fold change (FC): 4
Escherichia coli [37]
  fold change (FC): 4
Escherichia coli [38]
  MIC: 16 µg/mL (≈ 44.5 µM)
Escherichia coli [39]
  fold change (FC): 2
Escherichia coli [40]
  MIC: 0.5 µg/mL (≈ 1.39 µM)
Escherichia coli [41]
  MIC: 2 µg/mL (≈ 5.56 µM)
Escherichia coli [42]
  fold change (FC): 2
Escherichia coli [43]
  fold change (FC): 16
Escherichia coli [44]
  MIC: 128 µg/mL (≈ 356 µM)
Escherichia coli [45]
  fold change (FC): 4
Escherichia coli [46]
  fold change (FC): 8
